Earlier results in US6777448B2, “Veterinary compositions for the treatment of parasitic diseases” (New Pharma Research Sweden AB, priority 2000, dated 2004).
Read-outs that look alike come from different tables or passages of the source.

Tests used:
[1] = given orally
[2] = delivered via injection as such
[3] = bloodstream of animals

Structure (SMILES): O=C(Nc1ccc(Oc2ccc(Cl)cc2)c(Cl)c1)c1cc(I)cc(I)c1O [rafoxanide, 3′-chloro-4′-(4-chlorophenoxy)-3,5-di-iodosalicylanilide]
- solubility (in a 1% surface-active agent composition): 0.14%
- solubility in water (water at 25° C.): approximately 0.005 % weight/volume
- absorption ([1]; non-gastric species): 10%
- absorption ([1]; ruminants): up to 50%
- irritation on injection [2]: irritating
- binding to protein in the blood [3]: bind strongly to protein in the blood
- persistence in the bloodstream [3]: persist in the bloodstream of animals
